Calls of active or inactive are those of the source.
Key:
[1] = target: Tyrosine-protein phosphatase non-receptor type 11 (Homo sapiens, UniProt Q06124); experiment: SHP2 phosphatase inhibition, dose response, selectivity assay for STEP inhibitor project, biochemical (AID 602367); assay type: functional; conditions: read-out: IC50_Mean
[2] = target: Tyrosine-protein phosphatase non-receptor type 5 (Homo sapiens, UniProt P54829); experiment: STEP phosphatase inhibitors, confirmation, biochemical, fluorescence intensity, uHTS hits (AID 602372); assay type: functional; conditions: read-out: IC50_Mean
Tyrosine-protein phosphatase non-receptor type 5, sequence (P54829 whole entry): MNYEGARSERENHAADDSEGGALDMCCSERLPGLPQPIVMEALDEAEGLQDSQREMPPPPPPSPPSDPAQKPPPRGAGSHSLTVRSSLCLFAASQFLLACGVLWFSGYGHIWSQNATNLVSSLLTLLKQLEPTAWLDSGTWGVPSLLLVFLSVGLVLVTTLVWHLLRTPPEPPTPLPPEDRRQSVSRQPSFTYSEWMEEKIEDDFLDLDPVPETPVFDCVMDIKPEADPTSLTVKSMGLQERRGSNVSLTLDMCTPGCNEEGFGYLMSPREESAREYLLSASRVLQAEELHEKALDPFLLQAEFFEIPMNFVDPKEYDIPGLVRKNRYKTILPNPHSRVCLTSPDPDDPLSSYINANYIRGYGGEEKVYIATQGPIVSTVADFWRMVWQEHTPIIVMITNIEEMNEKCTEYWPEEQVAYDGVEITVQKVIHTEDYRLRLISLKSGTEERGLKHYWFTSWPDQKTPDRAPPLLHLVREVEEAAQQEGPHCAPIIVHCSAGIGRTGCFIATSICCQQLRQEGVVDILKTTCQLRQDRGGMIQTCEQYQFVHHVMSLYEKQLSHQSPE

[3] = target: Dual specificity protein phosphatase 3 (Homo sapiens, UniProt P51452); experiment: VHR phosphatase inhibition, dose response, selectivity assay for STEP inhibitor project, biochemical (AID 602374); assay type: functional; conditions: read-out: IC50_Mean
Dual specificity protein phosphatase 3, sequence (P51452 whole entry): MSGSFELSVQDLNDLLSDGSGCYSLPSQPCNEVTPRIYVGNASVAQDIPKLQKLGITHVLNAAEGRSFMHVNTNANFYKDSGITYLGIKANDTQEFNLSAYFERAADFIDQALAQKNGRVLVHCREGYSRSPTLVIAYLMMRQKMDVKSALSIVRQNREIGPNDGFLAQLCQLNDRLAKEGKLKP

[4] = target: Melanocortin receptor 4 (Homo sapiens, UniProt P32245); assay type: functional, cell-based;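 further: Cell-based assay with luminescence read-out, confirmatory dose-response testing for agonist activity of biased ligands at MC4R; human U2OS cells with tagged receptor and beta-arrestin; potency of agonists that increase receptor coupling to beta-arrestin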
[5] = inhibitors of HIV Env-driven cell fusion, dose response, cherry-pick (AID 652057); assay type: functional, cell-based
[6] = ZM109 Env clade C HIV-1 fusion inhibitors, dose response, HeLa effector, CEM target cells, luciferase, cherry-pick (AID 652058); assay type: functional, cell-based
[7] = inhibitors of clade B AD8 Env fusion, dose response, cell-based, cherry-pick (AID 652062); assay type: functional;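 further: luciferase signal from cell-cell fusion driven by HIV-1 clade B AD8 Env; potency is for inhibitors of fusion seen as a drop in luminescence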
[8] = target: T1, Heat shock factor protein 1 (Mus musculus, UniProt P38532); experiment: inhibition of MG132-induced HSE-luciferase signal, confirmation, cell-based, NIH3T3, luminescence, dose retest (AID 2382); assay type: functional;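 further: NIH3T3 fibroblasts with HSF1-driven luciferase reporter stressed by proteasome inhibitor MG132; luminescence from HSF1-driven luciferase expression after 8 hours of MG132 stress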
T1 sequence (P38532 whole entry): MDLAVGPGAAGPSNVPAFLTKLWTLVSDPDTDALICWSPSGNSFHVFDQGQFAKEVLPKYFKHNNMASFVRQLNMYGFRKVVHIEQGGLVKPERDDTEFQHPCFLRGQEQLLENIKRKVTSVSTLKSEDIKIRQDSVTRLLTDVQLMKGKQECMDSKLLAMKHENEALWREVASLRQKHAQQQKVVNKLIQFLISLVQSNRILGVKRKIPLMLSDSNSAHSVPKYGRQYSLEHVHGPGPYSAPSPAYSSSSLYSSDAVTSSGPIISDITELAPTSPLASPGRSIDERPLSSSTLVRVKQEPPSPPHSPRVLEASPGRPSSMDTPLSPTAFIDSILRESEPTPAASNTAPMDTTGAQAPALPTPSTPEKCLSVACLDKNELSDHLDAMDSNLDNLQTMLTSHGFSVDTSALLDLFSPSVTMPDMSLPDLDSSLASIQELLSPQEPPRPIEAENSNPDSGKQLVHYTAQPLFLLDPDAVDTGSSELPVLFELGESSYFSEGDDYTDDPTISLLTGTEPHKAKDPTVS

[9] = target: T2, Sentrin-specific protease 8 (Homo sapiens, UniProt Q96LD8); assay type: functional
T2 sequence (Q96LD8 whole entry): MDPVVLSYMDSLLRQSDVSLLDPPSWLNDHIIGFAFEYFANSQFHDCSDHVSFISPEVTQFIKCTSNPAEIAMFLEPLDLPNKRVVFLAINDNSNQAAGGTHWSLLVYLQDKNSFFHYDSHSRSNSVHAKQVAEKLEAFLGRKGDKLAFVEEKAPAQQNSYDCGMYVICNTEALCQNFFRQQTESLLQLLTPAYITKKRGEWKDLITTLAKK

[10] = target: T2, Sentrin-specific protease 8; assay type: functional; remark: listed apart in the source
[11] = target: T3, Caspase-6 (Homo sapiens, UniProt P55212); experiment: human caspase-6 inhibitors, dose response, biochemical, VEID-R110 fluorescence, cherry-pick (AID 720632)
T3 sequence (P55212 whole entry): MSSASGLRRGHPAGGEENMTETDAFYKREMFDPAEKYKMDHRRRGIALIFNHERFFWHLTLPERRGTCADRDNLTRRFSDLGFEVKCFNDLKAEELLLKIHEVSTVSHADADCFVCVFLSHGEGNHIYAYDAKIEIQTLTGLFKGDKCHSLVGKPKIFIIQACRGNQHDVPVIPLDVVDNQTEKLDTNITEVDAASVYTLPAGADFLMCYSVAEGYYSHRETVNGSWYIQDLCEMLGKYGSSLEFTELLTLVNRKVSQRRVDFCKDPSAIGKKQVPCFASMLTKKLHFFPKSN

[12] = cytotoxicity in HEK-293T cells, dose response, cytotoxicity control for TCR NF-kB inhibitor project, luminescence, T-cell screen hits (AID 489026); assay type: functional, cell-based;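 further: cells exposed to compound about 14 hours before the viability readout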
[13] = target: Beta-galactosidase (Escherichia coli, UniProt Q8VNN2); experiment: Dose response counterscreen for EBI2 assay utilizing the enzyme, b-galactosidase.; assay type: functional
Beta-galactosidase, sequence (Q8VNN2 whole entry): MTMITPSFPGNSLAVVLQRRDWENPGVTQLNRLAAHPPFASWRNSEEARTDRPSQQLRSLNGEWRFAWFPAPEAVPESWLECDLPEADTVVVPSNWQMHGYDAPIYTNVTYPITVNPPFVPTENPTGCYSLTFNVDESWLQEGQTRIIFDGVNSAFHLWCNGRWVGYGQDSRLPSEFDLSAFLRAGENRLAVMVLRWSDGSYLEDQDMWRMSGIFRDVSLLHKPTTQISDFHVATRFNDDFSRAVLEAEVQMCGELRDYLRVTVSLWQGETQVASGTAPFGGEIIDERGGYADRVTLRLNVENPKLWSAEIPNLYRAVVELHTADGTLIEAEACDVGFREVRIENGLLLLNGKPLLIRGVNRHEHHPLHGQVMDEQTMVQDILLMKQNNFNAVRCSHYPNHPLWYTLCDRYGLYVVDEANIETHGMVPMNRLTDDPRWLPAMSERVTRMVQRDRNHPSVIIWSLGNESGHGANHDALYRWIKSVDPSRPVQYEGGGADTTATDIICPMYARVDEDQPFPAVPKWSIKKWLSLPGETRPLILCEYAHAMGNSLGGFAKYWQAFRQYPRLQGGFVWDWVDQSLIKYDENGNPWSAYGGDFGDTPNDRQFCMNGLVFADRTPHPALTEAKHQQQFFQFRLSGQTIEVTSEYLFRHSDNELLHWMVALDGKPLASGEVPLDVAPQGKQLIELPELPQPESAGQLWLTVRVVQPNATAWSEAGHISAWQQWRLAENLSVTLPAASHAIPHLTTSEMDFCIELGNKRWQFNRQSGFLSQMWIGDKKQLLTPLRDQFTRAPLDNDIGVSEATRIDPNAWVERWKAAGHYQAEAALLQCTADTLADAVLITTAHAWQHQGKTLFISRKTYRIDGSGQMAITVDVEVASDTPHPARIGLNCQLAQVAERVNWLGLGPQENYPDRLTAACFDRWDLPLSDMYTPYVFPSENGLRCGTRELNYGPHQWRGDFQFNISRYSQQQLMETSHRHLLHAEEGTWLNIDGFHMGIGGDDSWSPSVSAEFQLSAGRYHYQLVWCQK

[14] = cells; assay type: functional, cell-based
[15] = target: Nuclear receptor subfamily 0 group B member 1 (Homo sapiens, UniProt P51843); assay type: functional, cell-based;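 further: HEK293T cells transfected with SF-1 and DAX-1 plus StAR promoter luciferase reporter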
Nuclear receptor subfamily 0 group B member 1, sequence (P51843 whole entry): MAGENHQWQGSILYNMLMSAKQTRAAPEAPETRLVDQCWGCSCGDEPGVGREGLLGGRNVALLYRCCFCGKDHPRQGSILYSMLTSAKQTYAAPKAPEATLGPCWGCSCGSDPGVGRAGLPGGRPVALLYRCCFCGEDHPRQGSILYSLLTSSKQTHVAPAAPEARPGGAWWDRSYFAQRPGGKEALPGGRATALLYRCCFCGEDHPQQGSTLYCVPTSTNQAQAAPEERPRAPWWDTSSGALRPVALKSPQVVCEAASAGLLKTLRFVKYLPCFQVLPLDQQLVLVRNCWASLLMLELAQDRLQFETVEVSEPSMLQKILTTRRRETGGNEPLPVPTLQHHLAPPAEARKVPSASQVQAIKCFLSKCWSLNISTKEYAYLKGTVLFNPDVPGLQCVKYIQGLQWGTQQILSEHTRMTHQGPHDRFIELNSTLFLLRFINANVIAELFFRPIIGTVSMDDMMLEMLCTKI

[16] = target: Fructose-bisphosphate aldolase (Mycobacterium tuberculosis, UniProt P9WQA3); experiment: Fluorescence-based biochemical high throughput dose response assay for inhibitors of the fructose-bisphosphate aldolase (FBA) of M. tuberculosis.; assay type: functional
Fructose-bisphosphate aldolase, sequence (P9WQA3 whole entry): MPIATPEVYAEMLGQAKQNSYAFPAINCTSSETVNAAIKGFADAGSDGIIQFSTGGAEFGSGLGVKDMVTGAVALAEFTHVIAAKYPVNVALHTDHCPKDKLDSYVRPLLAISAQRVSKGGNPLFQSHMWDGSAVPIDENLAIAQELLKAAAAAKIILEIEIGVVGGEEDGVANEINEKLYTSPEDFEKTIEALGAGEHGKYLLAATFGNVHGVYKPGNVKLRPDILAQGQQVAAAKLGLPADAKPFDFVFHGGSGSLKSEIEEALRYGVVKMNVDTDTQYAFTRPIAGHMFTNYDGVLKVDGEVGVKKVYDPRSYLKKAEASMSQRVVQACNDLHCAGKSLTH

[17] = AlphaScreen signal interference compounds, dose response, artefact control for ARNT-TACC3 interaction inhibitor project, biochemical, luminescence, cherry-pick (AID 651705); assay type: functional;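 further: AlphaScreen bead proximity signal that flags compounds interfering with the detection technology; potency reflects signal decrease which marks the compound as an assay artifact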
[18] = target: T4, Aminopeptidase N (Plasmodium falciparum FcB1/Columbia, UniProt O96935); experiment: P. falciparum M1AAP inhibitors, biochemical, fluorogenic H-Leu-NHMec substrate, 1536-well (AID 1445); design: species or system Plasmodium falciparum 3D7, 3D7
T4 sequence (O96935 whole entry): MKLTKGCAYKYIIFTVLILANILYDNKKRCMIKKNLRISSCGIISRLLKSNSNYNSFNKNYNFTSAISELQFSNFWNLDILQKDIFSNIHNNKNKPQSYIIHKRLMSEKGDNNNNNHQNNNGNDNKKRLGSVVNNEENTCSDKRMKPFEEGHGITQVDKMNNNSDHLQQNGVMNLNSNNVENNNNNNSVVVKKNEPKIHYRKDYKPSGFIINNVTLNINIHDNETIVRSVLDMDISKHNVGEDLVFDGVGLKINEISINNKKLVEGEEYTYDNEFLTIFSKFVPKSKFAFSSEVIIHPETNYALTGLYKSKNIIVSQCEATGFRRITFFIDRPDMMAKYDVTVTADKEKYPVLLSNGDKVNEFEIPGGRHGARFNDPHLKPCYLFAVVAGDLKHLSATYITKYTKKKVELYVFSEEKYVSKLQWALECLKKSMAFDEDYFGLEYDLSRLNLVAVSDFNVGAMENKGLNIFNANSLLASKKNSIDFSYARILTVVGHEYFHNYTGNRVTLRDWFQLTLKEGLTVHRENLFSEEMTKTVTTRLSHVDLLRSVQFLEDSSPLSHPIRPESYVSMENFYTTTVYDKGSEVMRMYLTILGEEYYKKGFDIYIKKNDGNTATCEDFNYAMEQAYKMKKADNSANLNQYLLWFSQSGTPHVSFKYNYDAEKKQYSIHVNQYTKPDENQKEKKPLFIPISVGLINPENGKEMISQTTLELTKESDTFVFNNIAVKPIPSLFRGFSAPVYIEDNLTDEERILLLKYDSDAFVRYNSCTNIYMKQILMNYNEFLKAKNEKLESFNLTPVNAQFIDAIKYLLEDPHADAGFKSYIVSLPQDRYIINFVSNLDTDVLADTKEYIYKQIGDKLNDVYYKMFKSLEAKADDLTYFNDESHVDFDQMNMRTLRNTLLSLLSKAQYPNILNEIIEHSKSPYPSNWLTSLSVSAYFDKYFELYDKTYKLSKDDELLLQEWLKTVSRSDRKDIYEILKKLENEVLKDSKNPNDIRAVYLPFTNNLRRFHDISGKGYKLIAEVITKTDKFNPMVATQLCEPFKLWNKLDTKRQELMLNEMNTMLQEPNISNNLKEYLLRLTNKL

[19] = test system: Vero; experiment: host cell cytotoxicity of antiviral hits, dose response, cytotoxicity control for West Nile virus antiviral project, secondary assay (AID 1650); assay type: functional; conditions: Chlorocebus sabaeus
[20] = target: SWI/SNF-related matrix-associated actin-dependent regulator of chromatin subfamily A member 2 (Homo sapiens, UniProt P51531); experiment: Luminescence-based cell-based high throughput dose response assay to identify activators of the function of SWI/SNF related, matrix associated, actin dependent regulator of chromatin, subfamily a, member 2 (SMARCA2, BRM).; assay type: functional
[21] = Counterscreen for activators of the function of SWI/SNF related, matrix associated, actin dependent regulator of chromatin, subfamily a, member 2 (SMARCA2, BRM): Luminescence-based cell-based high throughput dose response assay to identify non-selective compounds using the VP16 reporter assay.; assay type: functional
[22] = target: T5, DNA repair protein RAD52 homolog (Homo sapiens, UniProt P43351); assay type: functional, biochemical
T5 sequence (P43351 whole entry): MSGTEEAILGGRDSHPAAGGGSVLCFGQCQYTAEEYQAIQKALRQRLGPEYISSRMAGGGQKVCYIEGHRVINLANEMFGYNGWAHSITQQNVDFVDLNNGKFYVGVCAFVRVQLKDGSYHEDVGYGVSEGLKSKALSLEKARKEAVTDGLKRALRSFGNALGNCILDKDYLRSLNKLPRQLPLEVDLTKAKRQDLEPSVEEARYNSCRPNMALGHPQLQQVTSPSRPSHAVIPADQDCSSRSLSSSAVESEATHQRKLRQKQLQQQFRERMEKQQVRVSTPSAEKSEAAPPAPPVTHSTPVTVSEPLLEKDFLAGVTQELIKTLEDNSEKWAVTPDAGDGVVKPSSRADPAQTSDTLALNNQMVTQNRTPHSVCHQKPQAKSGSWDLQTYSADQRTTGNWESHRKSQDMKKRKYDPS

[23] = target: T6, Beta-2 adrenergic receptor (Homo sapiens, UniProt P07550); experiment: Dose response for HTS for Beta-2AR agonists via FAP method from Powderset1.; assay type: functional
T6 sequence (P07550 whole entry): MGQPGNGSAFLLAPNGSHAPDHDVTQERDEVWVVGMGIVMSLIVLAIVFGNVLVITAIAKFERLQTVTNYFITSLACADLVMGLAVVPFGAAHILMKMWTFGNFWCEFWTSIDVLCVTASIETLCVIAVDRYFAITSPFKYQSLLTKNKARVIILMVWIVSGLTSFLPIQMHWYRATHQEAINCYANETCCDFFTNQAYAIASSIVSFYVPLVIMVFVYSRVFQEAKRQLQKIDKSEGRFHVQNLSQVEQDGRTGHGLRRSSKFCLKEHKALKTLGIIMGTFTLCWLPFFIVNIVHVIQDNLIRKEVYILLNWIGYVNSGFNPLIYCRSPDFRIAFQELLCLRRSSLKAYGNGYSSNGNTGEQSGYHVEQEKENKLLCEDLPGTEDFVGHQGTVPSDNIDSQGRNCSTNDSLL

[24] = target: T6, Beta-2 adrenergic receptor; experiment: beta2AR agonists driving receptor internalization, dose response, cell-based, FAP fluorogen, flow cytometry, cherry pick 1 (AID 588763); assay type: functional
[25] = target: Arf-GAP with SH3 domain, ANK repeat and PH domain-containing protein 1 (Homo sapiens, UniProt Q9ULH1); assay type: functional;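 further: biochemical fluorescence polarization dose–response screen measuring inhibition of ASAP1; ASAP1 GAP domain stimulating GTP hydrolysis by truncated human ARF1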
Arf-GAP with SH3 domain, ANK repeat and PH domain-containing protein 1, sequence (Q9ULH1 whole entry, the tested form may be a part): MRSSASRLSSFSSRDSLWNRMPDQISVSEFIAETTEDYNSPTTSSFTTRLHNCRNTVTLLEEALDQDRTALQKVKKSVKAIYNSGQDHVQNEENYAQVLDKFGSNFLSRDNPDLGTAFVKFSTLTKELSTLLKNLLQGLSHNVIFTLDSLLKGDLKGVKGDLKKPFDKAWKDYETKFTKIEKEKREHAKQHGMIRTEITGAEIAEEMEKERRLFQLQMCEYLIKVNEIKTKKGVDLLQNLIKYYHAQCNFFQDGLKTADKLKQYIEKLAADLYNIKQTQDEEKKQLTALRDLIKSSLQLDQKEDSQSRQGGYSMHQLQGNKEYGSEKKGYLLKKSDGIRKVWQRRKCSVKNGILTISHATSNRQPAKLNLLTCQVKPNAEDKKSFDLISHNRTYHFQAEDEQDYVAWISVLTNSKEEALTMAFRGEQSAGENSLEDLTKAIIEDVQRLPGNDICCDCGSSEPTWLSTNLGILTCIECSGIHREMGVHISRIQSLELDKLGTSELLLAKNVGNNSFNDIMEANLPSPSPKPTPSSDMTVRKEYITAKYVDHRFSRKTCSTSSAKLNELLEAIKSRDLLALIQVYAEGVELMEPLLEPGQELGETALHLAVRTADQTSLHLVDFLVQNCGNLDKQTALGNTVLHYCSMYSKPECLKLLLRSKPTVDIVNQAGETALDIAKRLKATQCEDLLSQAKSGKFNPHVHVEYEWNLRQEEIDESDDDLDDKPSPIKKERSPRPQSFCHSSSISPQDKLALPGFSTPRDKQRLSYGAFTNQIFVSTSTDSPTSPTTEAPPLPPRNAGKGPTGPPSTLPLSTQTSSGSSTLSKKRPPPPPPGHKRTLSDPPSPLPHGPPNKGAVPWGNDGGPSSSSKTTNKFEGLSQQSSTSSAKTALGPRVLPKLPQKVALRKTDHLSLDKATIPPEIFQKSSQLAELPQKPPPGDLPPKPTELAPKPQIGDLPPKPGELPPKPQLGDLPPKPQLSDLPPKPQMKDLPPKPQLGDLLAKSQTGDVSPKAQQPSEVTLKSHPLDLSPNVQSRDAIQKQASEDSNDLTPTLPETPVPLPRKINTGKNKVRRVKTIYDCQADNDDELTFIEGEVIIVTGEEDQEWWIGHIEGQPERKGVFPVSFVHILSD

[26] = NIH-3T3 fibroblast cytotoxicity, dose response, cytotoxicity control, cell-based, fluorescence, Alamar Blue, secondary assay (AID 2327); assay type: functional;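 further: NIH-3T3 mouse fibroblasts cultured with fluconazole at 8 µg/mL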
[27] = C. albicans growth with fluconazole, confirmation, fluorescence, retest (AID 2467); assay type: functional, cell-based
[28] = inhibitors of intracellular T. cruzi replication, confirmation, NIH3T3 host cells, beta-gal luminescence (AID 2044); assay type: functional, cell-based;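 further: intracellular parasites grown in NIH/3T3 mouse fibroblasts as host cells; luminescent beta-galactosidase reporter signal from transgenic T. cruzi replicating inside host cells; inhibitors lower the luminescence signal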
[29] = cytotoxicity toward NIH3T3 fibroblasts, dose response, counter-screen, cell-based, ATP luminescence, mouse fibroblasts (AID 2010); assay type: functional;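 further: cells exposed to compound for about 90 hours before reading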
[30] = target: Cytochrome P450 2C19 (Homo sapiens, UniProt P33261); experiment: Cytochrome panel assay with activity outcomes. Panel member name: p450-cyp2c19 Compounds with AC50 equal or less than 10 uM are considered active; assay type: functional
[31] = CEM21 lymphoblast cell cytotoxicity, dose response, cytotoxicity control for viral fusion inhibitor project, CellTiter-Glo luminescence, cherry-picked (AID 652042); assay type: functional, cell-based;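 further: potency for signal decrease meaning cytotoxicity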
[32] = off-target signal loss in HeLa-CEM21 co-culture – HeLa F-luc CTL cells, cherry-picked, counter-screen for HIV-1 Env fusion inhibitor project, dose response (AID 652040); assay type: functional, cell-based;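 further: potency for signal decrease marking cytotoxic or nonspecific inhibition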
[33] = cells

Tyrosine-protein phosphatase non-receptor type 11, sequence (Q06124 whole entry): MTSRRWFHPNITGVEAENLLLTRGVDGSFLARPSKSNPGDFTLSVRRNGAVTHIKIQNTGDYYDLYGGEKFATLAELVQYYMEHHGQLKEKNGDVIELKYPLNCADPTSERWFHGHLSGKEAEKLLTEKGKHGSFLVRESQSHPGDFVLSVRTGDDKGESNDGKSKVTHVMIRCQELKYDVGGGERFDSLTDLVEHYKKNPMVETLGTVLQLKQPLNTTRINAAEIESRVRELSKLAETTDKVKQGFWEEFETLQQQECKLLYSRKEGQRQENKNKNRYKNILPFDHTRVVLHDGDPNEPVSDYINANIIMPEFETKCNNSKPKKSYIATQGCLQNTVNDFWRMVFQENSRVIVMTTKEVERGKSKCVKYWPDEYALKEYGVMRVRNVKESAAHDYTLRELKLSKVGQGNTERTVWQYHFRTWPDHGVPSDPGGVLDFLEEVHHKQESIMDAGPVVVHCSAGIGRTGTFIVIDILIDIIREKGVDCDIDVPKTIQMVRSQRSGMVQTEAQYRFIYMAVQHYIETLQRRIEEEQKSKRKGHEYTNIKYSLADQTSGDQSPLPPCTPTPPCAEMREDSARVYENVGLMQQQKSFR

COc1ccc(NC(=S)N(CCCN2CCC(C)CC2)Cc2cccs2)cc1Cl
IC50 [1]: 6.76 µM (active)
IC50 [2]: 55.6 µM (inactive)
IC50 [3]: 4.18 µM (active)

COc1ccc2nc(NC(=O)CSc3nc4cccnc4n3C)sc2c1
EC50 [4]: > 89.2 µM (inactive)

C[C@@H]1CN([C@@H](C)CO)C(=O)Cc2cc(NS(=O)(=O)c3cccs3)ccc2O[C@H]1CN(C)Cc1ccc(Cl)c(Cl)c1
AC50 [5]: 9.27 µM (active)
AC50 [6]: < 0.26 µM (active)
AC50 [7]: 0.486 µM (active)

O=C1Cc2ccccc2C(=O)N1c1cccc(Cl)c1
EC50 [8]: > 195 µM (not active)
IC50 [9]: > 100 µM (inactive)
IC50 [10]: 6.08 µM (active)
AC50 [11]: 35.6 µM (active)

Cc1cccc(N2CCN(C(=O)c3ccc4[nH]c(C)c(C)c4c3)CC2)c1C
IC50 [12]: > 80 µM (inactive)
IC50 [13]: > 80 µM (inactive)

C/C(=N/NC(=O)c1ccoc1C)c1cccc(NC(=O)C(F)(F)F)c1
IC50 [14]: > 67.5 µM (inactive)
IC50 [15]: > 67.5 µM (inactive)

Cc1ccc2nc(NC(=O)COC(=O)c3cccnc3)sc2c1
IC50 [14]: > 67.5 µM (inactive)
IC50 [15]: > 67.5 µM (inactive)

COC(=O)N/N=C1/C/C(=N\NC(=O)OC)c2ccccc21
IC50 [9]: 0.557 µM (active)
IC50 [10]: 0.365 µM (active)
AC50 [11]: 4.22 µM (active)

CN(C)c1ccc(/C=N\NC(=O)CC#N)cc1
IC50 [16]: > 1.11 µM (active)

O=C(CSc1ccc(-c2ccccn2)nn1)c1ccc([N+](=O)[O-])cc1
AC50 [17]: 131 µM (active)

O=C1c2ccccc2C(=O)c2c(NCCCN(CCO)CCO)cccc21
IC50 [18]: 77.7 µM (active)
CC50 [19]: 13.9 µM (active)
EC50 [20]: > 10.1 µM (inactive)
EC50 [21]: > 91.2 µM (inactive)
AC50 [22]: 0.977 µM (active)

COCCCNC(=S)NCCCNc1nc2cc3c(cc2cc1C#N)OCO3
IC50 [16]: 1.2 µM (active)

CCc1ccc2oc(C(=O)N3CCN(c4ccc(OC)cc4)CC3)cc(=O)c2c1
IC50 [13]: > 80 µM (inactive)

Clc1ccc(Cl)c(-c2nc(-c3ccncc3)no2)c1
IC50 [1]: 6.55 µM (active)
IC50 [2]: > 80 µM (inactive)
IC50 [3]: 25.4 µM (inactive)

Cc1ccc(SCC(=O)Nc2ccc(-c3nc4ccccc4[nH]3)cc2)cc1
EC50 [23]: 0.00682 µM (active)
EC50 [24]: 0.0116 µM (active)

COc1cccc(-n2nnc3c(=O)n(Cc4ccc(Br)cc4)cnc32)c1
IC50 [25]: 24.7 µM (inactive)

CCOC(=O)N1CCN(C(=O)CN(C)S(=O)(=O)c2ccc(Cl)cc2)CC1
EC50 [23]: 0.987 µM (active)
EC50 [24]: 1.95 µM (active)

CC[n+]1c(C=CN(C)c2ccccc2)sc2ccc(Cl)cc21.[O-][Cl+3]([O-])([O-])[O-]
EC50 [26]: > 150 µM (inactive)
EC50 [27]: 3.29 µM (active)
EC50 [28]: < 0.1 µM (active)
EC50 [29]: 5.94 µM (active)
AC50 [30]: inconclusive
AC50 [5]: 26.3 µM (active)
AC50 [31]: 59.3 µM (active)
AC50 [6]: 39.8 µM (active)
AC50 [32]: 13 µM (active)
AC50 [7]: 8.92 µM (active)
EC50 [33]: 0.146 µM (active)

From ChEMBL document CHEMBL1201862, “PubChem BioAssay data set” (2004)
